Columns and labels:
Format in all cases: in vivo, mice
B16 melanoma = assay: tumor growth assay, B16 model; settings: Experiment B16-1; 10 Gy d0 followed by i.v. EMD521873 days 3, 4, 5
Protocol: B16 cells, a murine melanoma cell line, were maintained in RPMI 1640, supplemented with 10% heat inactivated fetal bovine serum, L-glutamine, sodium pyruvate, non-essential amino acids, penicillin/streptomycin (Life Technologies, Inc.) at 37° C. and 7% CO2. B16 cells were implanted in female C57BL/6 mice.
For the tumor growth assay, cells growing exponentially in culture were injected as a single cell suspension in 100 μl of PBS intramuscularly into the upper legs of the mice. In experiments using a dual tumor model, cells were also implanted in the flanks of the mice. After tumors had become established, treatment was initiated (day 0). In Experiment LLC-7, tumors were implanted in the flank until established. Mice were treated on days 0 to 9, then, on day 12, tumors were excised using survival surgery. Thereafter, animal survival was monitored. […] Mice were treated on days 0 to 6 and day 17, and tumor size was measured twice weekly for the duration of the study.
(§1) Tumors were measured with calipers in three dimensions for the duration of the experiment. Tumor volumes were calculated using the equation: […]
In addition, there was a moderate, but significant increase in certain immune response markers in the tumor as measured by immune marker gene expression profiles with CD25, TNFA, TYROBP, ICOS and CD45 being modulated >4-fold compared to either therapy alone.

[1] = test system: immune effector cell populations in blood; assay: FACS analysis of immune effector cell populations in blood, CT26/KSA model
Protocol: Immune effector cell populations in blood were analyzed by FACS. Blood was collected from the retro-orbital sinus of each mouse. Red blood cells were eliminated using lysis buffer. After blocking with rat IgG (1:50), samples were incubated with a 7-color cocktail of antibodies against CD4, CD8, CD25, CD44, CD62L, CD11b, and DX5. Samples were run on a FacsARIA and analyzed for various cell subpopulations.

[2] = test system: Lewis lung carcinoma (LLC); assay: tumor growth assay, Lewis lung carcinoma model; settings: for Complete Response Rate: Sel 5 mg/kg d7, 8, 9, Ch/Rx = cisplatin 4 mg/kg d0 plus 3.6 Gy/d d0-4; for tumor growth / complete regressions: Experiments LLC-1, LLC-2, LLC-4
Protocol: LL/2 (LLC) cells, a murine Lewis lung carcinoma cell line, were maintained in DMEM, supplemented with 10% heat-inactivated fetal bovine serum, L-glutamine, penicillin/streptomycin (Life Technologies, Inc.) at 37° C. and 7% CO2. LLC cells were implanted in female C57BL/6 mice.
For the tumor growth assay, cells growing exponentially in culture were injected as a single cell suspension in 100 μl of PBS intramuscularly into the upper legs of the mice. In experiments using a dual tumor model, cells were also implanted in the flanks of the mice. […] In Experiment LLC-7, tumors were implanted in the flank until established. Mice were treated on days 0 to 9, then, on day 12, tumors were excised using survival surgery. Thereafter, animal survival was monitored. In Experiment LLC-14, tumors were implanted subcutaneously in the flank until established. Mice were treated on days 0 to 6 and day 17, and tumor size was measured twice weekly for the duration of the study.
Tumors were measured with calipers in three dimensions for the duration of the experiment. Tumor volumes were calculated using the equation:
Volume=4/3π(L/2×W/2×H/2) • where L=length, W=width and H=height of the tumor
For local irradiation, mice were anesthetized by intraperitoneal injection of a solution of 2% tribromoethanol/3% xylazine. The amount injected was 0.02 ml/gram of the recipient's weight. Mice were restrained so that only their tumor-bearing leg was exposed to radiation, while the reminder of the mouse was shielded. Tumors were irradiated with ^137Cs gamma radiation at a dose rate of 1 Gy/min using a Gammacell® 40 Exactor (Nordion, Ottawa, ON).
Data from the subcutaneous tumor growth assay are presented in graphic form depicting average and standard deviations (sd) of tumor volumes or weights during and after dosing. Animal weight changes were determined by subtracting the animal weight at each time point from the initial body weight, on day 0, then dividing by the initial body weight and multiplying by 100. Therefore a value of 0 indicates no weight change.
Student's 2-tailed t test or Mann-Whitney Rank Sum test, as appropriate, was performed on the individual tumor volumes or animal weights, to determine significant differences between treatment groups.

CT26/KSA colon carcinoma = assay: tumor growth assay, CT26/KSA model; settings: Experiments CT26-1-3; 3 or 4 Gy day 0 followed by EMD521873 5 mg/kg i.v. days 2, 3, 4
From the text: CT26 cells, a murine colon epithelial cell line derived by intrarectal injection of N-nitroso-N-methylurethane in BALB/C mice, were transfected to express the human KS antigen (KSA or EpCAM) that was cloned by PCR and expressed in parental cells using a retroviral vector (Gillies 1998). CT26/KSA cells were maintained in DMEM, supplemented with 10% heat inactivated fetal bovine serum, L-glutamine, vitamins, sodium pyruvate, non-essential amino acids, penicillin/streptomycin and Geneticin® (G418) (Life Technologies, Inc.) at 37° C. and 7% CO2. G418 was added to maintain KSA expression. CT26 and CT26/KSA cells were implanted in female BALB/C mice.
For the tumor growth assay, cells growing exponentially in culture were injected as a single cell suspension in 100 μl of PBS intramuscularly into the upper legs of the mice. […] Thereafter, animal survival was monitored. […] Mice were treated on days 0 to 6 and day 17, and tumor size was measured twice weekly for the duration of the study.
as §1
The effect of a single dose of radiation given on day 0 followed by i.v. dosing of the immunocytokine (5 mg/kg) was evaluated in three subcutaneous syngeneic tumor models (CT26 colon carcinoma, CT26/KSA colon carcinoma which expresses human EpCAM, and B16 melanoma). […]

[3] = Experiment LLC-6, chemoradiation followed by EMD521873
[4] = LLC-3, EMD521873 with cisplatin plus 1.2 Gy/d
[5] = triple combination of chemoradiation plus EMD521873

dI-NHS76γ2(h)(FN>AQ)-ala-IL2(D20T) [EMD521873]
anti-tumor activity (B16 melanoma): greater anti-tumor activity compared to either treatment alone
CD4+CD25+ lymphocyte subpopulation in the blood ([1]; radiation followed by EMD521873 (combination)): increased
increase in effector T cells in the blood ([1]; radiation followed by EMD521873, compared to either therapy alone): 4 fold
Complete Response Rate ([2]; Exp LLC-3): 0/6
Complete Response Rate ([2]; Exp LLC-4): 1/8
Complete Response Rate ([2]; Exp LLC-5): 0/6
growth control of the irradiated lesion (leg tumor) [2, 3]: good growth control
growth control of the non-irradiated flank tumor [2, 3]: did not surpass that of EMD521873 alone
tumor growth ([2]; EMD521873 5 mg/kg d7, 8, 9 with radiation 3.6 Gy/d d0-4): reduced tumor growth compared to any of the single treatments and to the other double treatments
complete regressions ([2]; EMD521873 with radiation): 3/6
tumor growth ([2]; cisplatin 4 mg/kg d0 added to radiation/EMD521873): further growth control
complete regressions ([2]; cisplatin added to radiation/EMD521873 (triple combination)): 5/6
complete responses ([2]; Experiments LLC-1, LLC-2, 3.6 Gy days 0-4 followed by EMD521873 5 mg/kg i.v. days 7, 8, 9): 3/6
complete responses ([2]; Experiments LLC-1, LLC-2, EMD521873 monotherapy 5 mg/kg i.v. days 7, 8, 9): No complete responses
tumor growth control ([2]; LLC-3, EMD521873 5 mg/kg d7, 8, 9 with cisplatin plus 0.4 Gy/d, vs EMD521873 alone or EMD521873 plus cisplatin): did not improve tumor growth control
complete responses [2, 4]: no complete responses
tumor growth control [2, 4]: improved growth control compared to either therapy alone
complete responses ([2]; LLC-3, cisplatin plus 3.6 Gy/d in combination with EMD521873): 5/6
T/C ([2]; LLC-3, day 19, cisplatin plus 3.6 Gy/d in combination with EMD521873): 0.02
T/C ([2]; LLC-3, day 19, single-arm groups: cisplatin plus 3.6 Gy/d without EMD521873, or EMD521873 alone): 0.69
complete responses ([2]; LLC-3, single-arm groups: cisplatin plus 3.6 Gy/d without EMD521873, or EMD521873 alone): 0/6
animals with complete response ([2]; LLC-8, LLC-9, combination with chemoradiation): 4/6
T/C ([2]; LLC-8, LLC-9, day 21, combination with chemoradiation (cisplatin 4 mg/kg d0 plus 3.6 Gy/d d0-4)): 0.03
response rate (CRs) ([2]; LLC-10, 1 mg/kg EMD521873 d7, 8, 9 plus chemoradiation): 2/8
response rate (CRs) ([2]; LLC-10, 5 mg/kg EMD521873 d7, 8, 9 plus chemoradiation): 3/8
response rate (CRs) ([2]; LLC-10, 15 mg/kg EMD521873 d7, 8, 9 plus chemoradiation): 3/8
tumor volume (FIG. 9) ([2]; LLC-10, 1, 5 and 15 mg/kg EMD521873 in combination with chemoradiation vs EMD521873 alone, chemoradiation alone, vehicle): similarly reduced tumor volume
tumor growth control ([2]; LLC-11, EMD521873 5 mg/kg d0, 1, 2 followed by radiation for 1 or 2 weeks, vs EMD521873 or radiation alone): an increase in tumor growth control
tumor regressions and complete responses ([2]; LLC-11, EMD521873 followed by radiation for 1 or 2 weeks): neither tumor regressions nor complete responses were achieved
tumor regressions ([2]; LLC-12, EMD521873 5 mg/kg days 7, 8, 9 after a single week of radiation (3.6 Gy/d; d0, 2, 4)): a majority of tumor regressions
complete responses ([2]; LLC-12, EMD521873 after a single week of radiation): no complete responses
tumor regressions and tumor growth control ([2]; LLC-12, EMD521873 during the 2nd week of a 2 week or 3 week course of radiation, vs EMD521873 or radiation alone): tumor regressions and improved tumor growth control
complete responses ([2]; LLC-13, cisplatin plus radiation for 1 week followed by EMD521873): 4/10
complete responses ([2]; LLC-13, cisplatin plus radiation for three weeks prior to EMD521873): 0/10
tumor growth control ([2]; LLC-13, cisplatin plus radiation for two weeks or three weeks prior to EMD521873): neither gave enhancement of tumor growth control compared to chemoradiation alone
complete responses ([2]; LLC-13, cisplatin plus radiation for two weeks prior to EMD521873): 2/10
tumor growth control ([2]; LLC-13, cisplatin plus radiation in the first week followed by EMD521873): enhancement of tumor growth control compared to either therapy alone
tumor growth (FIG. 6) ([2]; LLC-14, chemoradiation (cisplatin, 3.6 Gy/d d0-4) combined with immunocytokine on d6 and d17, EMD521873 5 mg/kg i.v., NHS-muIL12 10 μg/animal s.c.): enhanced the efficacy of EMD521873
tumor growth (FIG. 7) ([2]; immunocytokine administered with chemoradiation, compared to no treatment, chemoradiation alone, immunocytokine alone): a decrease in tumor growth
complete regressions (FIG. 8) ([2]; treatment alone): no complete regressions occurred
tumor growth (FIG. 8) ([2]; treatment alone): no decrease in tumor growth was seen
complete regressions (FIG. 8) [2, 5]: 9/9
tumor volume (FIG. 8) [2, 5]: a decrease in tumor volume
anti-tumor effect (complete regressions) (CT26/KSA colon carcinoma): a majority of the animals achieved complete regressions
